Where two headings read alike, the source gives them in different places. Blank lines part the entries; values can stand above or below the molecule they belong to.
How the values were obtained:
[1] = biological target: T1, GRK5 (Homo sapiens, UniProt P34947); assay: Intact protein MS, adduct formation with GRK5; conditions: for Adduct by MS: incubation time needed to observe adduct formation with GRK5: intact mass MS; for covalent adduct formation with GRK5 (in words): intact MS
[2] = biological target: T1, GRK5; assay: Kinome-wide selectivity panel, GRK5; conditions: read-out: inhibition of GRK5
[3] = biological target: T1, GRK5; assay: Covalent inhibition kinetic analysis
[4] = Thermodynamic solubility, miniaturized shake-flask; type: physicochemical
[5] = Microsomal stability, HLM; type: in vitro ADME; conditions: human, human liver microsomes
[6] = biological target: PKA (Homo sapiens, UniProt P17612); assay: PKA inhibition assay, ADP-Glo
[7] = biological target: T2, bovine GRK2 (Bos taurus, UniProt P21146); assay: Radiometric GRK2 inhibition assay; type: biochemical
T2 sequence (P21146 1-689): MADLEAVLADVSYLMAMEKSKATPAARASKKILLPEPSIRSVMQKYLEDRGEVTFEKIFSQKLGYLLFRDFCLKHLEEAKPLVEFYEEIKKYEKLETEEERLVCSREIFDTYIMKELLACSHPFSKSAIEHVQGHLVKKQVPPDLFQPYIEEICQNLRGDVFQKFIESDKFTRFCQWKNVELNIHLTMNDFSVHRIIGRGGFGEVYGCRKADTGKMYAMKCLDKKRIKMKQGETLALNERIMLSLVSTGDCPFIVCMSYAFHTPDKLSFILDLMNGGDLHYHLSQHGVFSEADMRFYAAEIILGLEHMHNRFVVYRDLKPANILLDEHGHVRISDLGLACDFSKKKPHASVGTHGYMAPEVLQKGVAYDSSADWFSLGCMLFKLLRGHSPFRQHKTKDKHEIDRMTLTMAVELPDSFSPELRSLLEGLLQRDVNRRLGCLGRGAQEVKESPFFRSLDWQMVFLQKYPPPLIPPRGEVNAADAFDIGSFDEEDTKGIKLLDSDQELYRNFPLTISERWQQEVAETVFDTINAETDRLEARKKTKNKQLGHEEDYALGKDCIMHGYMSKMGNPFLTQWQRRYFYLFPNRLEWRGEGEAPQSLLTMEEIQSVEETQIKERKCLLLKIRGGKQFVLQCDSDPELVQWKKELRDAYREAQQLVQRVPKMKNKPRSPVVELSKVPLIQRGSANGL

[8] = tested on: rodent model of hypertrophy; conditions: cited from earlier work
[9] = cited from earlier work

T1 sequence (P34947 whole entry): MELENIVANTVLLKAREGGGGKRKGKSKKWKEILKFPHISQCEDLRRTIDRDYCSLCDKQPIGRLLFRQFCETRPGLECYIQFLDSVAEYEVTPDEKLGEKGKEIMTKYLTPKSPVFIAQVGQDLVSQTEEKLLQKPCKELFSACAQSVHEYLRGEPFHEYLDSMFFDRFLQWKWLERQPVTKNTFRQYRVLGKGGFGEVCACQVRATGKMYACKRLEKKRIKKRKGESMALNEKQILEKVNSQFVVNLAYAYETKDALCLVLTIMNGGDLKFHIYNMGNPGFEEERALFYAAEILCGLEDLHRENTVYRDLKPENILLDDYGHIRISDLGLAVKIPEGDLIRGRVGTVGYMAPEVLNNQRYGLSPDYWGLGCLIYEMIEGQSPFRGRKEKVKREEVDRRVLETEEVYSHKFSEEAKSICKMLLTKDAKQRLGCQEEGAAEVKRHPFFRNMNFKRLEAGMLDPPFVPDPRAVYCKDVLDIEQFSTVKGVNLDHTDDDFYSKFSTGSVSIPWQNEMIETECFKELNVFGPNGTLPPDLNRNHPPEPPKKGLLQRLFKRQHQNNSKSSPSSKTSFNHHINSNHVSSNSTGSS

- solubility improvement over 9e [4]: 3.5 fold
Compound: Cc1[nH]c(/C=C2\C(=O)Nc3ccc(C(=O)N[C@H](C)c4ccccn4)cc32)c(C)c1NC(=O)CCl (mixture of isomers) [Compound 9l, (R,Z)-3-((4-(2-chloroacetamido)-3,5-dimethyl-1H-pyrrol-2-yl)methylene)-2-oxo-N-(1-(pyridin-2-yl)ethyl)indoline-5-carboxamide]

- half-life [5]: 18.9 min
Compound: Cc1[nH]c(/C=C2\C(=O)Nc3ccc(C(=O)N[C@H](C)c4ccc(F)cc4)cc32)c(C)c1NC(=O)CCl (stereo in doubt) [Compound 9j, (R,Z)-3-((4-(2-chloroacetamido)-3,5-dimethyl-1H-pyrrol-2-yl)methylene)-N-(1-(4-fluorophenyl)ethyl)-2-oxoindoline-5carboxamide]

- IC50 [6]: > 250 µM
- IC50 [7]: 23 ± 20 µM
Compound: Cc1[nH]c(/C=C2\C(=O)Nc3ccc(C(=O)N[C@@H](c4ccccc4)C(C)C)cc32)c(C)c1NC(=O)CCl (stereo in doubt) [Compound 9s, (R,Z)-3-((4-(2-chloroacetamido)-3,5-dimethyl-1H-pyrrol-2-yl)methylene)-N-(2-methyl-1-phenylpropyl)-2-oxoindoline-5-carboxamide]

- IC50 [7]: 190 ± 70 µM
Compound: Cc1[nH]c(/C=C2\C(=O)Nc3ccc(C(=O)NC(C)(C)c4ccccc4)cc32)c(C)c1NC(=O)CCl [Compound 9r, (Z)-3-((4-(2-chloroacetamido)-3,5-dimethyl-1H-pyrrol-2-yl)methylene)-2-oxo-N-(2-phenylpropan-2-yl)indoline-5-carboxamide]

Continued, molecule first:

Compound: C=CCCNC(=O)c1c(C)[nH]c(/C=C2\C(=O)Nc3ccc(C(=O)N[C@H](C)c4ccccc4)cc32)c1C (mixture of isomers) [Compound 5f, (R,Z)-3-((4-(but-3-en-1-ylcarbamoyl)-3,5-dimethyl-1H-pyrrol-2-yl)methylene)-2-oxo-N-(1-phenylethyl)indoline-5-carboxamide]
- Adduct by MS: incubation time needed to observe adduct formation with GRK5 ([1]; Table 1): >30 min

Compound: CC#CC(=O)Nc1c(C)[nH]c(/C=C2\C(=O)Nc3ccc(C(=O)N[C@H](C)c4ccccc4)cc32)c1C (mixture of isomers) [Compound 9a, (R,Z)-3-((4-(but-2-ynamido)-3,5-dimethyl-1H-pyrrol-2-yl)methylene)-2-oxo-N-(1-phenylethyl)indoline-5-carboxamide]
- Adduct by MS: incubation time needed to observe adduct formation with GRK5 ([1]; Table 1): >180 min
- covalent adduct formation with GRK5 (in words) ([1]; 30 min incubation): unreactive

Compound: Cc1[nH]c(/C=C2\C(=O)Nc3ccc(C(=O)N[C@H](C)c4ccccc4)cc32)c(C)c1NC(=O)CBr (mixture of isomers) [Compound 9g, (R,Z)-3-((4-(2-bromoacetamido)-3,5-dimethyl-1H-pyrrol-2-yl)methylene)-2-oxo-N-(1-phenylethyl)indoline-5-carboxamide]
- inhibition at 0.01 µM [2]: 50%
- Adduct by MS: percent adduct ([1]; Table 1, 30 min incubation): 70% 30 min
- covalent adduct formation with GRK5 (in words) ([1]; 30 min incubation): rapidly reacted with GRK5
- kinact [3]: > 0.0167 s⁻¹

Compound: NCCCNCCCCNCCCNc1cc2nc(-c3ccccc3Cl)[nH]c(=O)c2cc1F [KR-39038]
- effect in a rodent model of hypertrophy (in words) [8]: mild positive effects
- bioavailability (in words) [9]: low bioavailability
- half-life [9]: < 60 min
